The record followed here is ChEMBL document CHEMBL1152295, “Novel 3,3-disubstituted pyrrolidines as selective triple serotonin/norepinephrine/dopamine reuptake inhibitors” (Bioorg Med Chem Lett, 2008).

Data set [1] in a line: in vitro. As to conditions: human, liver microsomes.
Data set [2] can be described thus: in vitro. The settings on record: human.
Data set [3] is described as follows: in vitro. The settings on record: human. This is another data set of the same source.
The subject of data set [4] is Caco-2. As to conditions: human, caco-2, 10 µM.
Data set [5] concerns Caco-2. As to conditions: human, caco-2, 10 µM. The source holds these as a separate data set.

Take `c1ccc(CC2(c3ccc4[nH]ccc4c3)CCNC2)nc1` (stereo not drawn): in data set [1] (Stability), the microsomal CLint amounted to 86 µL/min/mg. This compound also had a Papp B→A at 10 µM in data set [2] (Caco-2, Papp) of 18 ×10⁻⁶ cm/s. In data set [3] (Caco-2, Papp), this compound came in with an apparent permeability from apical to basolateral (Papp A→B) at 10 µM of 3.2 ×10⁻⁶ cm/s.
On the same counts, the results for `NC(=O)c1cc2cc(C3(Cc4ccccc4)CCNC3)ccc2[nH]1` (stereo not drawn) are 1.4 µL/min/mg, 17 ×10⁻⁶ cm/s and 0.6 ×10⁻⁶ cm/s.
Consider `Cn1ccc2cc(C3(Cc4ccccc4)CCNC3)ccc21` (stereo not drawn), for which the intrinsic clearance (microsomal CLint) in data set [1] (Stability) amounted to 106 µL/min/mg.
In data set [1] (Stability), `CN(C)C(=O)c1cc2cc(C3(Cc4ccccc4)CCNC3)ccc2[nH]1` (stereo not drawn) had an intrinsic clearance (microsomal CLint) of 12.8 µL/min/mg. Also, in data set [2] (Caco-2, Papp), the Papp B→A at 10 µM was 24 ×10⁻⁶ cm/s. In data set [3] (Caco-2, Papp), this compound registered a Papp A→B at 10 µM of 4 ×10⁻⁶ cm/s.
`CCCC1(c2ccc3[nH]ccc3c2)CCNC1` (stereo not drawn) had a microsomal CLint in data set [1] of 2.3 µL/min/mg. Further, the apparent permeability from basolateral to apical (Papp B→A) at 10 µM in data set [2] (Caco-2) is 24 ×10⁻⁶ cm/s. This compound also came in with an apparent permeability from apical to basolateral (Papp A→B) at 10 µM in data set [3] (Caco-2) of 16.5 ×10⁻⁶ cm/s.
On to `CCCCC1(c2ccc3[nH]ccc3c2)CCNC1` (stereo not drawn), for which the intrinsic clearance (microsomal CLint) in data set [1] (Stability) stood at 38 µL/min/mg. Further, the Papp B→A at 10 µM in data set [2] (Caco-2, Papp) worked out at 19 ×10⁻⁶ cm/s. This compound also displayed an apparent permeability from apical to basolateral (Papp A→B) at 10 µM in data set [3] (Caco-2, Papp) of 9.4 ×10⁻⁶ cm/s.
Take `c1ccc(CC2(c3ccc4sccc4c3)CCNC2)cc1` (stereo not drawn): the microsomal CLint in data set [1] (Stability) was 198 µL/min/mg.
`CCOC(=O)c1cc2cc(C3(Cc4ccccc4)CCNC3)ccc2[nH]1` (stereo not drawn) yielded a microsomal CLint in data set [1] (Stability) of 47.8 µL/min/mg. In data set [2] (Caco-2, Papp), this compound registered an apparent permeability from basolateral to apical (Papp B→A) at 10 µM of 3.4 ×10⁻⁶ cm/s. In addition, the Papp A→B at 10 µM in data set [3] (Caco-2, Papp) is 3.5 ×10⁻⁶ cm/s.
Compound `Fc1ccc(CC2(c3ccc4[nH]ccc4c3)CCNC2)cc1` (stereo not drawn) came in with a microsomal CLint in data set [1] (Stability) of 84 µL/min/mg.
In data set [1] (Stability), `COc1cccc(CC2(c3ccc4[nH]ccc4c3)CCNC2)c1` (stereo not drawn) had an intrinsic metabolic clearance (microsomal CLint) of 77 µL/min/mg.
Consider `c1ccc(CC2(c3ccc4[nH]ncc4c3)CCNC2)cc1` (stereo not drawn), for which, in data set [1] (Stability), the intrinsic metabolic clearance (microsomal CLint) came out at 28 µL/min/mg. In data set [2] (Caco-2, Papp), this compound came in with a Papp B→A at 10 µM of 22 ×10⁻⁶ cm/s. Also, in data set [3] (Caco-2, Papp), the apical-to-basolateral permeability (Papp A→B) at 10 µM was found to be 10 ×10⁻⁶ cm/s.
`c1ccc(CC2(c3ccc4[nH]ccc4c3)CCNC2)cc1` (stereo in doubt; 16) [5-(3-BENZYLPYRROLIDIN-3-YL)-1H-INDOLE (STRUCTURAL MIX)]: the apparent permeability coefficient (Papp) in data set [4] came to 14 ×10⁻⁶ cm/s; in data set [5] it was 17 ×10⁻⁶ cm/s.
Compound `c1ccc(CC2(c3ccc4[nH]ccc4c3)CCNC2)cc1` (stereo in doubt; (+)-16) [5-(3-BENZYLPYRROLIDIN-3-YL)-1H-INDOLE (STRUCTURAL MIX)] registered a microsomal CLint in data set [1] (Stability) of 154 µL/min/mg. In data set [2] (Caco-2, Papp), this compound came in with an apparent permeability from basolateral to apical (Papp B→A) at 10 µM of 9.9 ×10⁻⁶ cm/s. In data set [3] (Caco-2, Papp), this compound returned a Papp A→B at 10 µM of 21 ×10⁻⁶ cm/s.
In data set [1], `Clc1ccc([C@]23CNC[C@H]2C3)cc1Cl` [AMITIFADINE] returned an intrinsic metabolic clearance (microsomal CLint) of 47 µL/min/mg. The compound also yielded a basolateral-to-apical permeability (Papp B→A) at 10 µM in data set [2] (Caco-2) of 2.1 ×10⁻⁶ cm/s. This compound also showed an apparent permeability from apical to basolateral (Papp A→B) at 10 µM in data set [3] (Caco-2) of 2.9 ×10⁻⁶ cm/s.
